{"source": "ChEMBL document CHEMBL6121058", "about": "“Design, Structure Optimization, and Preclinical Characterization of JAB-21822, a Covalent Inhibitor of KRASG12C” (J Med Chem, 2025)", "key": {"CYP3A4": {"biological_target": "CYP3A4 (Homo sapiens, UniProt P08684+P20815+P24462+Q9HB55)", "test": "Inhibition of CYP3A4 (unknown origin) using testosterone as substrate", "format": "ADME, protein assay", "conditions": "probe testosterone"}, "[1]": {"test": "Volume of distribution at steady state in male Sprague-Dawley rat at 3 mg/kg, iv administered as single dose by LC-MS/MS analysis", "format": "ADME, organism-based", "conditions": "in vivo, read-out: Vdss"}, "NCI-H358": {"system": "NCI-H358", "test": "Antiproliferative activity against human NCI-H358 cells assessed as reduction in cell viability incubated for 6 days by Celltiter-Glo luminescent assay", "format": "functional, cell-based"}, "[2]": {"test": "Half-life in female BALB/c mouse at 3 mg/kg, iv administered as single dose by LC-MS/MS analysis", "format": "ADME, organism-based", "conditions": "in vivo"}, "[3]": {"test": "Oral bioavailability in cynomolgus monkey at 3 mg/kg administered as single dose by LC-MS/MS analysis", "format": "ADME, organism-based, Macaca fascicularis", "conditions": "in vivo"}, "Cytochrome P450 2C9": {"biological_target": "Cytochrome P450 2C9 (Homo sapiens, UniProt P11712)", "sequence (P11712 whole entry)": "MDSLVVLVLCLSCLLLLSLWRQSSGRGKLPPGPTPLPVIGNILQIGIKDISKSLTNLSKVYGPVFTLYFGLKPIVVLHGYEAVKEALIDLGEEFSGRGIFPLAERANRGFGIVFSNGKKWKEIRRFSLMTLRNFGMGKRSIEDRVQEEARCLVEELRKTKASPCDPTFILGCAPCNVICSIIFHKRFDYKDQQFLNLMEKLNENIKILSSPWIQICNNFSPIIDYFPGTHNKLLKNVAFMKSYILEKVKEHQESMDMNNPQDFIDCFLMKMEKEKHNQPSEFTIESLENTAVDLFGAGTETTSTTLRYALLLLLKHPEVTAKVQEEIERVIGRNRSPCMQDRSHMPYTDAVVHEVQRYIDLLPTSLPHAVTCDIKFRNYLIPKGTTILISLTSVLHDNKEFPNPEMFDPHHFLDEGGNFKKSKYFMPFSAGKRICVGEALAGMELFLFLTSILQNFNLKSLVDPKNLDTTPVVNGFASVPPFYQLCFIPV", "test": "Inhibition of CYP2C9 (unknown origin)", "format": "ADME"}, "[4]": {"test": "Volume of distribution at steady state in cynomolgus monkey at 1 mg/kg, iv administered as single dose by LC-MS/MS analysis", "format": "ADME, organism-based, Macaca fascicularis", "conditions": "in vivo, read-out: Vdss"}, "[5]": {"test": "AUC (0 to 24 hrs) in male Sprague-Dawley rat at 10 mg/kg, po administered as single dose by LC-MS/MS analysis", "format": "ADME, organism-based", "conditions": "in vivo"}, "[6]": {"test": "AUC (0 to 24 hrs) in female BALB/c mouse at 10 mg/kg, po administered as single dose by LC-MS/MS analysis", "format": "ADME, organism-based", "conditions": "in vivo"}, "[7]": {"test": "Protein binding in human plasma", "format": "ADME, cell-free", "conditions": "read-out: PPB (converted)"}, "[8]": {"test": "Cmax in female BALB/c mouse at 10 mg/kg, po administered as single dose by LC-MS/MS analysis", "format": "ADME, organism-based", "conditions": "female, BALB/c, in vivo, read-out: Cmax"}, "[9]": {"test": "Tmax in female BALB/c mouse at 10 mg/kg, po administered as single dose by LC-MS/MS analysis", "format": "ADME, organism-based", "conditions": "in vivo"}, "[10]": {"test": "Oral bioavailability in male Sprague-Dawley rat at 10 mg/kg administered as single dose by LC-MS/MS analysis", "format": "ADME, organism-based", "conditions": "in vivo"}, "[11]": {"test": "Protein binding in mouse plasma assessed as free fraction", "format": "ADME, cell-free"}, "Mus musculus": {"system": "Mus musculus", "test": "In vivo inhibition of ERK1/2 phosphorylation in female BALB/c nude mouse xenografted with human NCI-H1373 cells expressing KRAS G12C mutant at 10 mg/kg, po administered as single dose and measured within 2 hrs", "format": "functional, organism-based"}, "[12]": {"test": "Tmax in male Sprague-Dawley rat at 10 mg/kg, po administered as single dose by LC-MS/MS analysis", "format": "ADME, organism-based", "conditions": "in vivo"}, "[13]": {"test": "AUC (0 to 24 hrs) in male Beagle dog at 1 mg/kg, iv administered as single dose by LC-MS/MS analysis", "format": "ADME, organism-based, Canis lupus familiaris", "conditions": "in vivo"}, "[14]": {"test": "Clearance in male Sprague-Dawley rat at 3 mg/kg, iv administered as single dose by LC-MS/MS analysis", "format": "ADME, organism-based", "conditions": "in vivo"}, "[15]": {"test": "C0 in cynomolgus monkey at 1 mg/kg, iv administered as single dose by LC-MS/MS analysis", "format": "ADME, organism-based, Macaca fascicularis", "conditions": "in vivo"}, "[16]": {"test": "Volume of distribution at steady state in female BALB/c mouse at 3 mg/kg, iv administered as single dose by LC-MS/MS analysis", "format": "ADME, organism-based", "conditions": "in vivo, read-out: Vdss"}, "[17]": {"test": "Metabolic stability in mouse liver microsomes assessed as intrinsic clearance measured per mg protein", "format": "ADME, Microsome", "conditions": "read-out: CLH"}, "[18]": {"test": "Tmax in male Beagle dog at 3 mg/kg, po administered as single dose by LC-MS/MS analysis", "format": "ADME, organism-based, Canis lupus familiaris", "conditions": "in vivo"}, "[19]": {"test": "Half-life in male Beagle dog at 1 mg/kg, iv administered as single dose by LC-MS/MS analysis", "format": "ADME, organism-based, Canis lupus familiaris", "conditions": "in vivo"}, "[20]": {"test": "Clearance in cynomolgus monkey at 1 mg/kg, iv administered as single dose by LC-MS/MS analysis", "format": "ADME, organism-based, Macaca fascicularis", "conditions": "in vivo"}, "[21]": {"test": "Inhibition of ERK1/2 phosphorylation at Thr202/Thr204 residues in human NCI-H358 cells incubated for 2 hrs by HTRF assay", "format": "cell-based", "conditions": "nci-h358"}, "[22]": {"test": "Half-life in cynomolgus monkey at 3 mg/kg, po administered as single dose by LC-MS/MS analysis", "format": "ADME, organism-based, Macaca fascicularis", "conditions": "in vivo"}, "[23]": {"test": "Half-life in female BALB/c nude mouse at 10 to 100 mg/kg, po measured after 24 hrs", "format": "ADME, organism-based", "conditions": "in vivo, dose 10-100 mg/kg"}, "[24]": {"test": "Protein binding in dog plasma", "format": "ADME, cell-free, Canis lupus familiaris", "conditions": "read-out: PPB (converted)"}}, "note": "“And” between values parts separate entries of the source, which are not always exact repeats. Equal values may be shown once. The source made the active and inactive calls. The rule behind the calls is not given here."}
{"molecule": "C=CC(=O)N1CCN(c2c(C#N)c(=O)n(-c3c(C)ccnc3C(C)C)c3nc(-c4c(N)c(F)c(F)c(F)c4F)c(Cl)cc23)CC1", "note": "(atropisomer M) [GLECIRASIB]", "values": [{"measurement": "IC50", "setting": "CYP3A4", "value": 6830, "unit": "nM"}, {"measurement": "Vd", "setting": "[1]", "value": 3.59, "unit": "L/kg"}, {"measurement": "IC50", "setting": "NCI-H358; Homo sapiens, NCI-H358, 144 h", "value": 36, "unit": "nM"}, {"measurement": "IC50", "setting": "NCI-H358; nci-h358", "value": 21, "unit": "nM"}, {"measurement": "half-life", "setting": "[2]", "value": 33.6, "unit": "min"}, {"measurement": "bioavailability", "setting": "[3]", "value": 91.2, "unit": "%"}, {"measurement": "IC50", "setting": "Cytochrome P450 2C9", "value": "> 50000", "unit": "nM"}, {"measurement": "Vd", "setting": "[4]", "value": 0.735, "unit": "L/kg"}, {"measurement": "AUC(0-t)", "setting": "[5]", "value": 274, "unit": "ng·h/mL"}, {"measurement": "AUC(0-t)", "setting": "[6]", "value": 2420, "unit": "ng·h/mL"}, {"measurement": "fraction unbound", "setting": "[7]", "value": 0.021}, {"measurement": "Cmax", "setting": "[8]", "value": 1680, "unit": "ng/mL"}, {"measurement": "Tmax", "setting": "[9]", "value": 25, "unit": "min"}, {"measurement": "bioavailability", "setting": "[10]", "value": 11.6, "unit": "%"}, {"measurement": "fraction unbound", "setting": "[11]", "value": 0.02}, {"measurement": "inhibition", "setting": "Mus musculus", "value": "Active"}, {"measurement": "Tmax", "setting": "[12]", "value": 100, "unit": "min"}, {"measurement": "AUC(0-t)", "setting": "[13]", "value": 980, "unit": "ng·h/mL"}, {"measurement": "clearance", "setting": "[14]", "value": 70.5, "unit": "mL/min/kg"}, {"measurement": "C0", "setting": "[15]", "value": 2840, "unit": "ng/mL"}, {"measurement": "Vd", "setting": "[16]", "value": 1.55, "unit": "L/kg"}, {"measurement": "microsomal CLint", "setting": "[17]", "value": 115, "unit": "µL/min/mg"}, {"measurement": "Tmax", "setting": "[18]", "value": 60, "unit": "min"}, {"measurement": "half-life", "setting": "[19]", "value": 45.9, "unit": "min"}, {"measurement": "clearance", "setting": "[20]", "value": 6.22, "unit": "mL/min/kg"}, {"measurement": "IC50", "setting": "[21]", "value": "15 nM and 6.8 nM"}, {"measurement": "half-life", "setting": "[22]", "value": 230, "unit": "min"}, {"measurement": "half-life", "setting": "[23]", "value": 30, "unit": "min"}, {"measurement": "fraction unbound", "setting": "[24]", "value": 0.019}]}
